Experimental data as given in US20050079529A1, “Very large scale immobilized polymer synthesis” (Affymetrix, INC., priority 1989, published 2005).
Square brackets hold non-standard residues; d marks the D form. Ends that are not written are not given here.

Tests used:
[1] = system: anti-dynorphin B murine monoclonal antibody; experiment: 4×10 peptide array related to dynorphin B screened with anti-dynorphin B antibody and labeled goat anti-mouse antibody; format: binding; conditions: FIG. 30
From the text: An array of peptides synthesized using the general protection-deprotection technology outlined above. Referring to FIG. 30, the following peptides were synthesized: row 1=RXFKVVT; row 2=RQXFKVVT; row 3=RQXKVVT; and row 4=RXKVVT. In each row, “X” represents a group of four amino acids, which were simultaneously added to the immobilized peptide. The particular group of amino acids used as “X” on a given block are identified by column number as follows: column 1 [G,A,R,K in a ratio 1:1:1:1], column 2 [null]; column 3 [C,M,S,T in the ratio 1:1:1:5]; column 4 [null]; column 5 [F,Y,W,H in the ratio 1:1:1:1]; column 6 [null]; column 7 [D,E,N,Q in the ratio 1:1:1:1]; column 8 [null]; column 9 [V,L,I,P in the ratio 2:1:4:1]; and column 10 [null].
After these peptides were synthesized, they were screened with an anti-dynorphin B murine monoclonal antibody and then exposed to a fluorescently labeled goat anti-mouse antibody. […] Other strongly labeled regions, include column 7, row 1 and column 5, row 3, each of which contains some peptides having the above binding epitope. It should be noted that the varying ratios of some of the amino acids within a given group were necessary to obtain roughly equal binding efficiencies among the four amino acids.

[2] = system: anti-dynorphin B monoclonal antibody; experiment: Dynorphin B deletion peptide array, relative binding of anti-dynorphin B monoclonal antibody by fluorescence intensity
Experimental: The binding epitope on dynorphin B for the anti-dynorphin B antibody described above was determined by deleting various amino acids and combinations of amino acids from the overall sequence of dynorphin B. The peptides containing these various deletions were prepared on a substrate by the general protection-deprotection methods described above. Then the substrate was exposed to the anti-dynorphin B monoclonal antibody and a fluorescence image was produced as shown in FIG. 33.
From the intensity distribution contained in this plot, it was possible to determine the relative binding affinity to various of the peptides.

[3] = system: Herz antibody; experiment: Array of sixteen amino acid sequences, relative binding to Herz antibody by fluorescence; parameters: species or system mouse; conditions: FIG. 17
From the text: Using techniques similar to those set forth above, an array of 16 different amino acid sequences (replicated four times) was synthesized on each of two glass substrates. The sequences were synthesized by attaching the sequence NVOC-GFL across the entire surface of the slides. Using a series of masks, two layers of amino acids were then selectively applied to the substrate. Each region had dimensions of 0.25 cm×0.0625 cm. The first slide contained amino acid sequences containing only L amino acids while the second slide contained selected D amino acids. FIGS. 15A and 15B illustrate a map of the various regions on the first and second slides, respectively. The patterns shown in FIGS. 15A and 15B were duplicated four times on each slide. The slides were then exposed to the Herz antibody and fluorescein-labeled goat anti-mouse.
FIG. 16 is a fluorescence plot of the first slide, which contained only L amino acids. Light shading indicates strong binding (149,000 counts or more) while black indicates little or no binding of the Herz antibody (20,000 counts or less). The bottom right-hand portion of the slide appears “cut off” because the slide was broken during processing. […]
FIG. 17 is a fluorescence plot of the second slide. […]
Table 2 lists the various sequences tested in order of relative fluorescence, which provides information regarding relative binding affinity. […]

For RQFKVVT, the “fluorescence labeling of array region” value [1] was “brightest region”, the “RELATIVE INTENSITY” value ([2]; mean ± spread over N synthesis sites) was 93.6 ± 10.0 and the “RELATIVE INTENSITY, value in parentheses (ADJUSTED)” value ([2]; second value in parentheses) was “(96.2 ± 7.1)”.
For “YpGFL: SEQ ID NO:24; lower case letters represent D-amino acids (Y[dP]GFL)”, the “binding of Herz antibody, second slide (selected D amino acids)” value [3] was “Significant binding”.
